Data from BindingDB's records for patent US20250163072 (Hoffmann-La Roche, 2025).

Target: GTPase KRas [G12C]/Serine/threonine-protein kinase B-raf (Human, UniProt P01116+P15056, G12C)
Assay: KRAS G12C-BRAF NanoBit Assay
Description: HEK293 cells were grown and maintained using DMEM medium (Thermo Fisher Scientific) with 10% fetal bovine serum and 1% penicillin/streptomycin. Both KRAS G12C and BRAF RBD were cloned into the NanoBit vectors ([…] vectors system, Promega) with the orientations SmBit-KRAS G12C and BRAF RBD-LgBit, respectively, and co-transfected into HEK293 cells. Cells were then selected with 100 μg/mL Hygromycin B (10687010, Thermo Fisher) and Blasticidin (5 μg/mL) for 4 weeks to get the stable cell pool. On the day of the assay, 75 nL of compound solution was presented in a 384-well assay plate as a 16-point 3-fold dilution starting from a final concentration of 30 μM in DMSO. Then cells were seeded at 10,000 cells/25 μL/well in a 384-well plate. After 3 hours of incubation, 6 μL of volume of Nano-Glo Live Cell Substrate (Promega) was added into each well. Monitor luminescence using ultra384 model in Envision at 20 minutes. Compounds that facilitate disruption of the KRAS G12C-BRAF RBD complex were identified as those eliciting a decrease of luminescence relative to DMSO control wells.

Sequence of GTPase KRas [G12C]/Serine/threonine-protein kinase B-raf (P01116 whole entry G12C): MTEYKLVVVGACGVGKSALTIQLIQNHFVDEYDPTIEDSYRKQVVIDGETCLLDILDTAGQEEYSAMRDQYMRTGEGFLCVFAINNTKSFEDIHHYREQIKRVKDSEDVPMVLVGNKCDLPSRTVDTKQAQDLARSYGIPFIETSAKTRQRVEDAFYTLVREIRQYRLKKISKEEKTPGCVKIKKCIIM
Sequence of GTPase KRas [G12C]/Serine/threonine-protein kinase B-raf (P15056 2-766 limits assumed): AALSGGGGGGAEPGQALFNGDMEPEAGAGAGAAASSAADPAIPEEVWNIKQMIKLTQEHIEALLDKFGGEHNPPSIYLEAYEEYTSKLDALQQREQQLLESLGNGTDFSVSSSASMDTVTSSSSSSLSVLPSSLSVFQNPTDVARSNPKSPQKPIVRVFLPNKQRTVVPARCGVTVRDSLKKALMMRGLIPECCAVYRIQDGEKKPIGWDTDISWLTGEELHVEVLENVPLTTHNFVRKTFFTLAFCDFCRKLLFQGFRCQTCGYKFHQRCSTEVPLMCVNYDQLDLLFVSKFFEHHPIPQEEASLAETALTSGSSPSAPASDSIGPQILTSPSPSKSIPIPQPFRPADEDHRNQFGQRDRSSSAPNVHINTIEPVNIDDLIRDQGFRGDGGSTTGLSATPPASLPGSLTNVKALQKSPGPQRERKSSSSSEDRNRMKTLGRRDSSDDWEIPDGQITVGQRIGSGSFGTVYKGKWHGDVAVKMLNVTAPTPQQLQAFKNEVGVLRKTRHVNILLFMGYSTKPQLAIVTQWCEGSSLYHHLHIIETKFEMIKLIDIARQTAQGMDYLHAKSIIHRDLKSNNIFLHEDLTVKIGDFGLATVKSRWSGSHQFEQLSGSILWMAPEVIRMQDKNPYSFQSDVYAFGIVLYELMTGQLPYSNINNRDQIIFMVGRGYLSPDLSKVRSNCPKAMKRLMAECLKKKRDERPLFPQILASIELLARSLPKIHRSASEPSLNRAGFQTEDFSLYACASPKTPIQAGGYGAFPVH

SMILES | IC50
CCn1c(-c2cccnc2[C@H](C)OC)c2c3cc(ccc31)-c1cc(O)cc(c1)C[C@H](NC(=O)[C@H](C(C)C)N(C)C(=O)C1CCN(C(=O)C#CCN3CCOCC3)C1)C(=O)N1CCC[C@H](N1)C(=O)OCC(C)(C)C2 (stereo partly drawn) [US20250163072, Example RM018] | 268 nM
CC(C)[C@@H](C(=O)N[C@H]1Cc2cc(O)cc(c2)-c2ccc3c(C(C)(C)C#N)cn(c3c2)CC(C)(C)COC(=O)[C@@H]2CCCN(N2)C1=O)N1CCCC2(CCN(C(=O)CCl)C2)C1=O (stereo partly drawn) [US20250163072, Example RM351] | 1780 nM
CCn1c(-c2cccnc2[C@H](C)OC)c2c3cc(ccc31)-c1cc(O)cc(c1)C[C@H](NC(=O)[C@H](C(C)C)N(C)C(=O)C1CN(C(=O)CCl)C1)C(=O)N1CCC[C@H](N1)C(=O)OCC(C)(C)C2 [US20250163072, Example RM461] | 440 nM
